From US9790210B2, “N-(monocyclic aryl),N'-pyrazolyl-urea, thiourea, guanidine and cyanoguanidine compounds as TrkA kinase inhibitors” (Array BioPharma Inc., priority 2012, dated 2017)

Assays:
Test in all cases: KinaseProfiler
Assay type in all cases: biochemical
Details in all cases: 10 μM, ATP near Km
CDK2/cyclinA = target: T1, CDK2/cyclinA (Homo sapiens, UniProt P24941)
T1 construct: purchased Millipore, Inc. (KinaseProfiler service)
Procedure, shortened: (§1)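 Inhibition was profiled at 10 μM in duplicate. Kinase-specific ATP levels near Km were used, and residual activity is stated as percent of control, averaged over both replicates.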

PKCdelta = target: T2, PKCdelta (Homo sapiens, UniProt Q05655)
T2 construct: purchased Millipore, Inc. (KinaseProfiler service)
Procedure, shortened: as §1

JNK3 = target: T3, JNK3 (Homo sapiens, UniProt P53779)
T3 construct: purchased Millipore, Inc. (KinaseProfiler service)
Procedure, shortened: as §1

ERK2 = target: T4, ERK2 (Homo sapiens, UniProt P28482)
T4 construct: purchased Millipore, Inc. (KinaseProfiler service)
Procedure, shortened: as §1

FGFR1 = target: T5, FGFR1 (Homo sapiens, UniProt P11362)
T5 construct: purchased Millipore, Inc. (KinaseProfiler service)
Procedure, shortened: as §1

PrKX = target: T6, PrKX (Homo sapiens, UniProt P51817)
T6 construct: purchased Millipore, Inc. (KinaseProfiler service)
Procedure, shortened: as §1

CK1gamma3 = target: T7, CK1gamma3 (Homo sapiens, UniProt Q9Y6M4)
T7 construct: purchased Millipore, Inc. (KinaseProfiler service)
Procedure, shortened: as §1

CLK3 = target: T8, CLK3 (Homo sapiens, UniProt P49761)
T8 construct: purchased Millipore, Inc. (KinaseProfiler service)
Procedure, shortened: as §1

EphA2 = target: T9, EphA2 (Homo sapiens, UniProt P29317)
T9 construct: purchased Millipore, Inc. (KinaseProfiler service)
T9 sequence (P29317 24-976): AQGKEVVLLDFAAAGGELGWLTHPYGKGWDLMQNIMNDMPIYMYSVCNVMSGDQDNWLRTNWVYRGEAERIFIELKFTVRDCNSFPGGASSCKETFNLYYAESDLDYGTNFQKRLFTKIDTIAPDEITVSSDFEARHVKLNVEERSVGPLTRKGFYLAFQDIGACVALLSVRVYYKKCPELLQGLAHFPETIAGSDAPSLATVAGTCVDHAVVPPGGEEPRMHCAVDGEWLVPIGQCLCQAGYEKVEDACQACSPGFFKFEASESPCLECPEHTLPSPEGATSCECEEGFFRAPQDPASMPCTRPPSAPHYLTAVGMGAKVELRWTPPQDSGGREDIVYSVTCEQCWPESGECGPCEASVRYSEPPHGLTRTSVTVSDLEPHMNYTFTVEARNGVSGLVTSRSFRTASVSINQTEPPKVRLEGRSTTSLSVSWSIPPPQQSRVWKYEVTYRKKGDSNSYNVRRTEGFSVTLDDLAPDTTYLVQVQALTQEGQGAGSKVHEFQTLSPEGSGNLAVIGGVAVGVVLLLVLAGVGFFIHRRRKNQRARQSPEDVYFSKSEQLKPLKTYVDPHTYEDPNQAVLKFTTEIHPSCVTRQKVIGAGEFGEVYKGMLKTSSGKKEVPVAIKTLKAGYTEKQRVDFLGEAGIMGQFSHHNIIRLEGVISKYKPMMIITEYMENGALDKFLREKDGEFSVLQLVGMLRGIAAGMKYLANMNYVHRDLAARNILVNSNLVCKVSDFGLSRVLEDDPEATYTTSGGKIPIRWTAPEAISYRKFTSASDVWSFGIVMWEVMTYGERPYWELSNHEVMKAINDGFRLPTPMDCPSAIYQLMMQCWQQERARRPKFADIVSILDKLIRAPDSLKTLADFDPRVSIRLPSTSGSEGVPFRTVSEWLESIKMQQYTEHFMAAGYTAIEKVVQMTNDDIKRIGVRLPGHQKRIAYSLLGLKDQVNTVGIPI
Procedure, shortened: as §1

Hck = target: T10, Hck (Homo sapiens, UniProt P08631)
T10 construct: purchased Millipore, Inc. (KinaseProfiler service)
Procedure, shortened: as §1

SIK = target: T11, SIK (Homo sapiens, UniProt P57059)
T11 construct: purchased Millipore, Inc. (KinaseProfiler service)
Procedure, shortened: as §1

Pim-3 = target: T12, Pim-3 (Homo sapiens, UniProt Q86V86)
T12 construct: purchased Millipore, Inc. (KinaseProfiler service)
Procedure, shortened: as §1

EphA1 = target: T13, EphA1 (Homo sapiens, UniProt P21709)
T13 construct: purchased Millipore, Inc. (KinaseProfiler service)
Procedure, shortened: as §1

PAK4 = target: T14, PAK4 (Homo sapiens, UniProt O96013)
T14 construct: purchased Millipore, Inc. (KinaseProfiler service)
Procedure, shortened: as §1

ROCK-I = target: T15, ROCK-I (Homo sapiens, UniProt Q13464)
T15 construct: purchased Millipore, Inc. (KinaseProfiler service)
Procedure, shortened: as §1

c-RAF = target: T16, c-RAF (Homo sapiens, UniProt P04049, Y340D/Y341D)
T16 construct: purchased Millipore, Inc. (KinaseProfiler service)
Procedure, shortened: as §1

MRCKalpha = target: T17, MRCKalpha (Homo sapiens, UniProt Q5VT25)
T17 construct: purchased Millipore, Inc. (KinaseProfiler service)
T17 sequence (Q5VT25 whole entry): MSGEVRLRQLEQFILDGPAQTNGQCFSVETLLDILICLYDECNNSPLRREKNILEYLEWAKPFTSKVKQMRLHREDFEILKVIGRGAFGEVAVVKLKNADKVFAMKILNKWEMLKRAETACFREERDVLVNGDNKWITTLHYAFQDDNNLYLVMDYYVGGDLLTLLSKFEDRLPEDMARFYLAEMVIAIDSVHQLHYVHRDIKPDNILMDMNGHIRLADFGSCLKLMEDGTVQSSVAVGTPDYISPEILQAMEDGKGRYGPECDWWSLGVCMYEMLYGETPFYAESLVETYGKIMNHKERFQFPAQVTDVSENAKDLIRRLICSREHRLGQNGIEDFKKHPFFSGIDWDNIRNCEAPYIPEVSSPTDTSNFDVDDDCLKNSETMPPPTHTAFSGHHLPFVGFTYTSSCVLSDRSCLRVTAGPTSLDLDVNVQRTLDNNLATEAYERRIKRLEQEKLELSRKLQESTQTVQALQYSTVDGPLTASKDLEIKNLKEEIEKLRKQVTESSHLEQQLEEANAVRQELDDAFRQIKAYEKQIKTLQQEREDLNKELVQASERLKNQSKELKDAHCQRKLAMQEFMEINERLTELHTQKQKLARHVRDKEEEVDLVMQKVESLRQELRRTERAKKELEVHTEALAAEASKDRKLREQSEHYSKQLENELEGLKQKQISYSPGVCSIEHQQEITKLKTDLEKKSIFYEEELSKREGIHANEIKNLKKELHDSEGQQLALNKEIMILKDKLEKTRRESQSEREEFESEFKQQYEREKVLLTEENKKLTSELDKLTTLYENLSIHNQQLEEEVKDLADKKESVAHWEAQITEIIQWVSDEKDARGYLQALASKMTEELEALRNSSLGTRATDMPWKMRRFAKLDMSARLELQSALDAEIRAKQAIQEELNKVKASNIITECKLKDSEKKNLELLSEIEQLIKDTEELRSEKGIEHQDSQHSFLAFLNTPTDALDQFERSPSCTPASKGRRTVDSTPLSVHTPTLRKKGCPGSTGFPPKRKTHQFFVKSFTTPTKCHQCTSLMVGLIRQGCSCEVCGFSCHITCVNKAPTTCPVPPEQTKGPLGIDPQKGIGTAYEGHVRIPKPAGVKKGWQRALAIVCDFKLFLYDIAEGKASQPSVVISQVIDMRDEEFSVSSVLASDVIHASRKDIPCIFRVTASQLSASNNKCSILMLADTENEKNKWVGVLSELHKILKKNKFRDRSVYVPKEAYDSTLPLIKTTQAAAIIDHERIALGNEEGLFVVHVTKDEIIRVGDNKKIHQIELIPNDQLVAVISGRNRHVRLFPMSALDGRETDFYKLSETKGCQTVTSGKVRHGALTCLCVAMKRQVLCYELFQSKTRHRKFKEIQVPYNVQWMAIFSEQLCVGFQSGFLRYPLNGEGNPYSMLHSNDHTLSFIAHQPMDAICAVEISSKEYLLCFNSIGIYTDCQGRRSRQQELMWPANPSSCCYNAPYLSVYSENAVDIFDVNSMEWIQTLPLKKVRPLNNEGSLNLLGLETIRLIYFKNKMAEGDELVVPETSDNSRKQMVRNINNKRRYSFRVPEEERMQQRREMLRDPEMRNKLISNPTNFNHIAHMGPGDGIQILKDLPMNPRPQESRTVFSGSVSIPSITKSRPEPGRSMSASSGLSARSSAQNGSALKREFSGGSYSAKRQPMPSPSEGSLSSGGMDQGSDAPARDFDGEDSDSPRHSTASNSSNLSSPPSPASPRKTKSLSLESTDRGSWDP
Procedure, shortened: as §1

Ron = target: T18, Ron (Homo sapiens, UniProt Q04912)
T18 construct: purchased Millipore, Inc. (KinaseProfiler service)
T18 sequence (Q04912 25-1400): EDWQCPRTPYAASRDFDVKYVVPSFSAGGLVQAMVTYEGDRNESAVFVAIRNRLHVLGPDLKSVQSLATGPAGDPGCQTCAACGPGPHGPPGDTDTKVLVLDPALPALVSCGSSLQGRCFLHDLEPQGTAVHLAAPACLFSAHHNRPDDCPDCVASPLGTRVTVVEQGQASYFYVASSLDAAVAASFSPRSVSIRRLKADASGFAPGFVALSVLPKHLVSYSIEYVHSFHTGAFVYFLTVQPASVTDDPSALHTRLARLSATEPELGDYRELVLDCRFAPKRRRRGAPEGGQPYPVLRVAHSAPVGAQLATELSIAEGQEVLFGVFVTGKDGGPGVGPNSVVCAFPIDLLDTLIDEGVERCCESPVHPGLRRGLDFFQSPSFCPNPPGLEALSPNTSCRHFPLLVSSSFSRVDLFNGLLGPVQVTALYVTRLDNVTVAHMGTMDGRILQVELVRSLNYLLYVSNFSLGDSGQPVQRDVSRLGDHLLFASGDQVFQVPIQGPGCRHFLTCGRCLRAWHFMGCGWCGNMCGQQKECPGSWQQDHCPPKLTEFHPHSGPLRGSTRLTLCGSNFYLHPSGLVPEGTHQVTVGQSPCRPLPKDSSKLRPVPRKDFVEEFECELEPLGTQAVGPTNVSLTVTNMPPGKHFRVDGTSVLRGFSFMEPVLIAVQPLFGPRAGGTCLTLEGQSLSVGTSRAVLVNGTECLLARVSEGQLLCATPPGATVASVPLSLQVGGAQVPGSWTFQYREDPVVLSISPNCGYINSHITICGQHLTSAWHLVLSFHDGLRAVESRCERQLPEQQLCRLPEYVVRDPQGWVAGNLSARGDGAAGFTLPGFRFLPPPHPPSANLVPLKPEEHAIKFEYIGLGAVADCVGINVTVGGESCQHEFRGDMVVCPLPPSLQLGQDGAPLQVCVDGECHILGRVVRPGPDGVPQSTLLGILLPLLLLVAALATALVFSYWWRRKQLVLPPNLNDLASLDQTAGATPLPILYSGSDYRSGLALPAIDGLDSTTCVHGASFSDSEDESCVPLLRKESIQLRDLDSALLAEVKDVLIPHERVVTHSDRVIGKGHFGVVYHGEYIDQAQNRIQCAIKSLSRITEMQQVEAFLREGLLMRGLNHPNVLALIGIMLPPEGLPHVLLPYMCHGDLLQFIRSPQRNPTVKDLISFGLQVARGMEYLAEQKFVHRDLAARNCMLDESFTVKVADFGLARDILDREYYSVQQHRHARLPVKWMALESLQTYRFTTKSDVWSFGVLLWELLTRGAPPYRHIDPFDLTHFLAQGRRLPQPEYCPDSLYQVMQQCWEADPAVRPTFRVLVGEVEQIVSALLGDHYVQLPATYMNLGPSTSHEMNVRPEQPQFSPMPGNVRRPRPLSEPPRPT
Procedure, shortened: as §1

VRK2 = target: T19, VRK2 (Homo sapiens, UniProt Q86Y07)
T19 construct: purchased Millipore, Inc. (KinaseProfiler service)
Procedure, shortened: as §1

AKT1 = target: T20, AKT1 (Homo sapiens, UniProt P31749)
T20 construct: purchased Millipore (KinaseProfiler service)
Procedure, shortened: as §1

PASK = target: T21, PASK (Homo sapiens, UniProt Q96RG2)
T21 construct: purchased Millipore, Inc. (KinaseProfiler service)
Procedure, shortened: as §1

AURKA = target: T22, AURKA (Homo sapiens, UniProt O14965)
T22 construct: purchased Millipore (KinaseProfiler service)
Procedure, shortened: as §1

mTOR = target: T23, mTOR (Homo sapiens, UniProt P42345)
T23 construct: purchased Millipore, Inc. (KinaseProfiler service)
Procedure, shortened: as §1

Rsk2 = target: T24, Rsk2 (Homo sapiens, UniProt P51812)
T24 construct: purchased Millipore, Inc. (KinaseProfiler service)
Procedure, shortened: as §1

JNK2alpha2 = target: T25, JNK2alpha2 (Homo sapiens, UniProt P45984)
T25 construct: purchased Millipore, Inc. (KinaseProfiler service)
Procedure, shortened: as §1

DMPK = target: T26, DMPK (Homo sapiens, UniProt Q09013)
T26 construct: purchased Millipore, Inc. (KinaseProfiler service)
Procedure, shortened: as §1

ERK1 = target: T27, ERK1 (Homo sapiens, UniProt P27361)
T27 construct: purchased Millipore, Inc. (KinaseProfiler service)
Procedure, shortened: as §1

MST1 = target: T28, MST1 (Homo sapiens, UniProt Q13043)
T28 construct: purchased Millipore, Inc. (KinaseProfiler service)
Procedure, shortened: as §1

Axl = target: T29, Axl (Homo sapiens, UniProt P30530)
T29 construct: purchased Millipore (KinaseProfiler service)
Procedure, shortened: as §1

TBK1 = target: T30, TBK1 (Homo sapiens, UniProt Q9UHD2)
T30 construct: purchased Millipore, Inc. (KinaseProfiler service)
Procedure, shortened: as §1

Tie2 = target: T31, Tie2 (Homo sapiens, UniProt Q02763)
T31 construct: purchased Millipore, Inc. (KinaseProfiler service)
Procedure, shortened: as §1

FAK = target: T32, FAK (Homo sapiens, UniProt Q05397)
T32 construct: purchased Millipore, Inc. (KinaseProfiler service)
Procedure, shortened: as §1

FAK2 = target: T33, FAK2 (Homo sapiens, UniProt Q14289)
T33 construct: purchased Millipore, Inc. (KinaseProfiler service)
T33 sequence (Q14289 whole entry): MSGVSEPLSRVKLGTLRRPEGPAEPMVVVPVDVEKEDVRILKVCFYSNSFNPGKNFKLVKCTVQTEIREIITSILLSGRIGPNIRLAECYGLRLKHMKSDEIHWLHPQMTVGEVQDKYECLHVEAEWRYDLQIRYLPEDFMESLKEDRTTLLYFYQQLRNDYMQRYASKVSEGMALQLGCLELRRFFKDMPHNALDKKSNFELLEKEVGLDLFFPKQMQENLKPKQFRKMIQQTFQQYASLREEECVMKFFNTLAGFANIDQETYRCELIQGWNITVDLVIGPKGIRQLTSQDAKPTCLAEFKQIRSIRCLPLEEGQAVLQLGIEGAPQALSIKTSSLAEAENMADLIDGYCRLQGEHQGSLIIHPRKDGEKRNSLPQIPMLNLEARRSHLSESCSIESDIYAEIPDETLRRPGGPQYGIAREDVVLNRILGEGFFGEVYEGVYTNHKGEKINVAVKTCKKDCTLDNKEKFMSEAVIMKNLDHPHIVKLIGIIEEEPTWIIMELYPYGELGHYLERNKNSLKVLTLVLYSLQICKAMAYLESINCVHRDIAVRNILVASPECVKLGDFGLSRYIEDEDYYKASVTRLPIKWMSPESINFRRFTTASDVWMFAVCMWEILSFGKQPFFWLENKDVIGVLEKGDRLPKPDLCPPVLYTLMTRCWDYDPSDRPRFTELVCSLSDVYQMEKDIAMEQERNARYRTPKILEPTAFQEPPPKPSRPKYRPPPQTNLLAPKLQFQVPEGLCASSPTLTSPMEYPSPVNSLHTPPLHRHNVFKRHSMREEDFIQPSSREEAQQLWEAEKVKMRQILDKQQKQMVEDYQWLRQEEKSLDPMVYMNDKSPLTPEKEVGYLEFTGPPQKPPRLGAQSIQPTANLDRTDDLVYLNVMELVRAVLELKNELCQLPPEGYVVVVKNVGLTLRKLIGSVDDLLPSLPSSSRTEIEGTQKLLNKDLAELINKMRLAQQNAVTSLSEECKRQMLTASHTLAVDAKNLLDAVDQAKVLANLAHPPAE
Procedure, shortened: as §1

Abl-P = target: T34, Abl-P (Homo sapiens, UniProt P00519)
T34 construct: purchased Millipore (KinaseProfiler service)
Procedure, shortened: as §1

IRAK1 = target: T35, IRAK1 (Homo sapiens, UniProt P51617)
T35 construct: purchased Millipore, Inc. (KinaseProfiler service)
Procedure, shortened: as §1

PhKgamma2 = target: T36, PhKgamma2 (Homo sapiens, UniProt P15735)
T36 construct: purchased Millipore, Inc. (KinaseProfiler service)
Procedure, shortened: as §1

Rsk1 = target: T37, Rsk1 (Homo sapiens, UniProt Q15418)
T37 construct: purchased Millipore, Inc. (KinaseProfiler service)
Procedure, shortened: as §1

CDK5/p25 = target: T38, CDK5/p25 (Homo sapiens, UniProt Q00535)
T38 construct: purchased Millipore, Inc. (KinaseProfiler service)
Procedure, shortened: as §1

PAK2 = target: T39, PAK2 (Homo sapiens, UniProt Q13177)
T39 construct: purchased Millipore, Inc. (KinaseProfiler service)
Procedure, shortened: as §1

PAK5 = target: T40, PAK5 (Homo sapiens, UniProt Q9P286)
T40 construct: purchased Millipore, Inc. (KinaseProfiler service)
Procedure, shortened: as §1

JNKlalpha1 = target: T41, JNKlalpha1 (Homo sapiens, UniProt P45983)
T41 construct: purchased Millipore, Inc. (KinaseProfiler service)
Procedure, shortened: as §1

- Avg POC (CDK2/cyclinA): 112.5 POC
- Avg POC (PKCdelta): 96 POC
- Avg POC (JNK3): 104 POC
- Avg POC (ERK2): 108 POC
- Avg POC (FGFR1): 111.5 POC
- Avg POC (PrKX): 134 POC
- Avg POC (CK1gamma3): 112.5 POC
- Avg POC (CLK3): 105 POC
- Avg POC (EphA2): 104 POC
- Avg POC (Hck): 89 POC
- Avg POC (SIK): 137 POC
- Avg POC (Pim-3): 105.5 POC
- Avg POC (EphA1): 117 POC
- Avg POC (PAK4): 110.5 POC
- Avg POC (ROCK-I): 117.5 POC
- Avg POC (c-RAF): 98.5 POC
- Avg POC (MRCKalpha): 137 POC
- Avg POC (Ron): 108.5 POC
- Avg POC (VRK2): 94 POC
- Avg POC (AKT1): 120 POC
- Avg POC (PASK): 188 POC
- Avg POC (AURKA): 113.5 POC
- Avg POC (mTOR): 102.5 POC
- Avg POC (Rsk2): 136.5 POC
- Avg POC (JNK2alpha2): 92 POC
- Avg POC (DMPK): 108.5 POC
- Avg POC (ERK1): 103.5 POC
- Avg POC (MST1): 94.5 POC
- Avg POC (Axl): 107 POC
- Avg POC (TBK1): 110 POC
- Avg POC (Tie2): 160.5 POC
- Avg POC (FAK): 103.5 POC
- Avg POC (FAK2): 102.5 POC
- Avg POC (Abl-P): 140.5 POC
- Avg POC (IRAK1): 103 POC
- Avg POC (PhKgamma2): 110.5 POC
- Avg POC (Rsk1): 118 POC
- Avg POC (CDK5/p25): 106 POC
- Avg POC (PAK2): 101.5 POC
- Avg POC (PAK5): 132.5 POC
- Avg POC (JNKlalpha1): 107 POC
SMILES: COCCCc1cc(Cl)c(Cl)cc1NC(=O)Nc1c(C)c(-c2cnn(C)c2)nn1-c1ccccc1 [Example 15, 1-(4,5-dichloro-2-(3-methoxypropyl)phenyl)-3-(1′,4-dimethyl-1-phenyl-1H,1′H-[3,4′-bipyrazol]-5-yl)urea]
